Measurements published in patent US20180008593A1 (Purdue Pharma L.P., priority 2005, published 2018).
Where “and” joins values, the source holds several entries; their conditions need not be identical. Identical values can stand only once. Like-named read-outs stand apart in the source and are kept apart here.

Assays:
[1] = oral administration; extensive first-pass-metabolism; cited from earlier work
[2] = test system: bowel function of pain patients on oxycodone with need for laxatives; conditions: for Mean Bowel Function Score, Mean (SD) V3: V3 end of titration; for Mean Bowel Function Score, Mean (SD) V5: V5 end of maintenance
Protocol: (§2) a) Mean Pain during the last 7 days prior to each visit, based on the patient's twice-daily assessment of pain intensity using the 0-100 numerical analogue scale (NAS) (0=no pain and 100=worst imaginable pain). Mean Pain was calculated for each study visit as the mean value of the daily mean values of all patient's diary entries from the last 7 days. b) Mean bowel function: patient's assessment, at each study visit, of bowel function during the last 7 days prior to each visit. Mean bowel function was calculated from the mean of the three 0-100 NAS scores: ease of defecation (0=easy/no difficulty, 100=severe difficulty), feeling of incomplete bowel evacuation (0=not at all, 100=very strong), and judgment of constipation (0=not at all, 100=very strong). Secondary efficacy variables of interest included among others: c) Global assessment of efficacy, tolerability and preference. […] Tolerability was measured using the same 0 to 7 numerical analogue scale.
Mean bowel function was calculated for each study visit from the mean of the three NAS values ease/difficulty of defecation, feeling of incomplete bowel evacuation and judgment of constipation.
In addition, two-sided 95% CIs (CI, confidence interval) for the difference in means between the treatment groups were provided. […] These analyses were performed for the ITT and PP populations.
The parameter estimates derived were taken to display a surface plot of the whole dose range investigated. Moreover, a contour plot of the bowel function with a granulation of 10 was performed.

[3] = test system: experimental human pain model, healthy volunteers; test: Intensity estimates of phasic (CO2) pain, Example 4; format: in vivo; conditions: 70% CO2; 45 mg naloxone with 20 mg oxycodone
Protocol: In the first 20 minutes, 40 phasic CO2-stimuli were applied (20 stimuli at a concentration of 70% and 20 at a concentration of 60%, interstimulus interval 30 s). In response to these stimuli, pain-related potentials and subjective intensity estimates were recorded. Subsequently, tonic pain was induced for 16 minutes and subjects had to rate the intensity of the dull, burning pain.
(§1) CO2-stimuli were mixed in a constantly flowing air stream with controlled temperature (36.5° C.) and humidity (80% relative humidity) presented to the left nostril (stimulus duration 200 ms, interstimulus interval 30 s). […] During intervals between phasic stimuli subjects performed a simple tracking task on a video screen. Using a joystick, they had to keep a small square inside a larger one that randomly moved around.
Within 3-4 seconds after presentation of each CO2 stimulus, subjects compared the perceived intensity to a standard stimulus (70% v/v CO2) presented at the beginning of the first session of each trial day. […] The intensity of the standard stimulus was defined as 100 Estimation Units (EU). The mid-time of a session was regarded as time of measurement. Intensity estimates of the CO2 stimuli (60% and 70%) were evaluated separately for each concentration. On a trial day, the ratings of each post-treatment session were evaluated relative to base line values. […]

[4] = test system: rats physically dependent on oxycodone; test: Naloxone-precipitated withdrawal in oxycodone-dependent rats (Gellert-Holtzman global rating, graded and checked signs), Example 5; conditions: i.v.
Protocol: Rats were implanted with Alzet 2ML 1 osmotic minipumps infusing either saline vehicle or oxycodone at 1.5 mg/kg/h for 7 days as described above. […] The complete parametric design for oxycodone-pump implanted rats required testing rats with vehicle:vehicle and oxycodone:vehicle.
Signs of physical dependence were evaluated in rats intravenously administered the drugs, and then immediately placed back in their home cages for a 60-min observation period. […] The table is divided into Graded Signs and Checked Signs, and assigned a weighted factor. The rats were evaluated for these signs during the 60 min observation period, the scores were collected, and a combined Global Score was assigned to each rat. Data were analyzed by combining the graded signs of escape attempts and wet-dog shakes into a single score of Grades Signs during each 15-min interval for 60-min. Checked signs were analyzed during each 15-min interval for 60-min.
The rats were assessed in 15-min intervals for both graded and checked signs for a total of 60 min. The graded signs of escape attempts and wet-dog shakes were tallied, whereas, checked signs such as diarrhea, profuse salivation, chromodactorrhea, etc. were noted as being either absent or present during the 15-min period. Both graded and checked signs were assigned a numeric score based on studies by Gellert and Holtzman (1978), and the total value for each animal was added to provide a global rating.
The incidence of checked signs during opioid withdrawal was also analyzed statistically within each time interval at 0-15, 15-30, 30-45 and 45-60 minutes. The data was analyzed within each time interval using contingency table Person's Chi Square analysis (Sigma Stat Statistical Software, SPSS, Inc.) to evaluate the X2 value. X2 values exceeding the critical value for 7 of 14.1 were considered statistically significant intervals for that checked behavioral sign.

[5] = test system: experimental human pain model, healthy volunteers; test: Pain-related evoked potentials (EEG) after CO2 stimulation of the nasal mucosa, Example 4; format: in vivo; conditions: for Magnitude of reduction of amplitude P1N1 at C4 compared to baseline: 60% CO2
Protocol: This was a single site, single dose, double blind, placebo-controlled, 5-treatment, 5-period, randomized, balanced crossover study in healthy adult male and female subjects. […] Subjects were allocated each of the 5 treatments described in the synopsis according to a random allocation schedule (RAS). There was a 7-day washout period
Analgesic effects were assessed by means of an experimental human pain model based on the chemosomatosensory pain-related cortical potentials (CSSEPs) and pain-ratings after specific phasic nociceptive stimulation of the nasal mucosa with gaseous CO2. In addition, intensity estimates of tonic pain produced by stimulation of the nasal mucosa with dry air at controlled flow and temperature were employed.
Within the present pain model, the following were used as indicators of analgesia: • post-treatment decrease in pain-ratings and/or • post-treatment decrease in amplitudes of pain-related evoked potentials and/or • post-treatment increase in latencies of pain-related evoked potentials, relative to the pretreatment values.
1. Base-to-peak amplitudes P1, N1 and P2, peak-to-peak amplitudes P1 N1 and N1P2 of pain related evoked potentials 2. Latencies P1, N1 and P2 of pain-related evoked potentials 3. Intensity estimates of phasic (C02-) pain 4. Intensity estimates of tonic pain
In the first 20 minutes, 40 phasic CO2-stimuli were applied (20 stimuli at a concentration of 70% and 20 at a concentration of 60%, interstimulus interval 30 s). In response to these stimuli, pain-related potentials and subjective intensity estimates were recorded.
as §1
The EEG was recorded from 5 positions of the international 10/20 system (Cz, C3, C4, Fz and Pz; see FIG. 40) referenced to linked earlobes (A1+A2). Possible eye blink artifacts were monitored from an additional site (Fp2/A1+A2). Stimulus linked EEG segments of 2040 ms duration were sampled with a frequency of 250 Hz (band pass 0.2-30 Hz, pre-stimulus period 512 ms). The recorded analog EEG segments were then converted to digital and filed electronically. The average value for each recording position was separately calculated, discarding all eye blink contaminated records. By this procedure pain-related evoked potentials were obtained in response to the painful CO2 stimuli. Base to peak amplitudes P1, N1 and P2, the peak to peak amplitudes P1 N1 and N1 P2 and the latencies of P1, […] and P2 were measured. Wherever the time of measurement was used in the data analysis, the mid-time of a session was taken. FIG. 40 presents the components of the pain-related evoked potentials.

[6] = test system: patients with severe chronic pain of tumour and non-tumour origin; conditions: for Mean Pain, Mean (SD) V3: V3 end of titration; for Mean Pain, Mean (SD) V5: V5 end of maintenance
Protocol: The pre-randomization phase consisted of screening and titration/run-in. Following screening, patients entered either a titration or run-in period. Patients with insufficient pain pre-treatment entered a minimum 2-week titration period and were individually titrated and stabilized at an oxycodone dose of 40 mg, 60 mg or 80 mg per day. Patients on stable oxycodone pre-treatment at screening (between 40-80 mg/day) and with concomitant constipation, entered a 1 week run-in period and were eligible for the maintenance phase without prior titration. For all patients, the dose of oxycodone could be adjusted during titration or run-in and investigators maintained compulsory telephone contact every 2nd day to assess pain control and make dose changes.
as §2

[7] = test system: patients with severe chronic pain; test: Laxative intake / mean laxative dose, Example 1; format: in vivo, human
Protocol: d) Laxative intake/mean laxative dose, which was calculated from the respective case report forms (CRF) entries. An analysis of the mean laxative dose during the last seven days was performed for patients who took only one laxative during the entire study. Entries from the medication record CRF page were used for all calculations (laxatives were identified by the WHO ATC Code A06A). For laxative intake number of days with laxation during the last 7 days and the percentage of days with laxation during the last 7 days were calculated for each study visit. In addition, the percentage of days with laxation during the whole maintenance phase and during the follow-up phase was calculated.

[8] = ITT non-missing, naloxone 10 mg/day + oxycodone 40-80 mg/day
[9] = ITT non-missing, naloxone 20 mg/day + oxycodone 40-80 mg/day
[10] = ITT non-missing, naloxone 40 mg/day + oxycodone 40-80 mg/day
[11] = ITT/LOCF, naloxone 10 mg/day + oxycodone 40-80 mg/day
[12] = ITT/LOCF, naloxone 20 mg/day + oxycodone 40-80 mg/day
[13] = ITT/LOCF, naloxone 40 mg/day + oxycodone 40-80 mg/day
[14] = PP, naloxone 20 mg/day + oxycodone 40-80 mg/day
[15] = PP, naloxone 40 mg/day + oxycodone 40-80 mg/day
[16] = naloxone 10 mg/day + oxycodone 40-80 mg/day
[17] = naloxone 20 mg/day + oxycodone 40-80 mg/day
[18] = naloxone 40 mg/day + oxycodone 40-80 mg/day

C=CCN1CC[C@]23c4c5ccc(O)c4O[C@H]2C(=O)CC[C@@]3(O)[C@H]1C5 [Naloxone, naloxone]
Oral bioavailability [1]: < 3%
Mean Bowel Function Score, Mean (SD) V3 [2, 8]: 53.5 (22.2)
Mean Bowel Function Score, Mean (SD) V3 [2, 9]: 51.3 (21.6)
Mean Bowel Function Score, Mean (SD) V3 [2, 10]: 48.2 (20.6)
Mean Bowel Function Score, Mean (SD) V5 [2, 8]: 40.3 (23.1)
Mean Bowel Function Score, Mean (SD) V5 ([2]; ITT non-missing, naloxone 10 mg/day + oxycodone 40-80 mg/day, listed as naloxone): 40.3 (±23.09) and 40.3 (±23.1)
Mean Bowel Function Score, Mean (SD) V5 [2, 9]: 31.3 (25.8)
Mean Bowel Function Score, Mean (SD) V5 ([2]; ITT non-missing, naloxone 20 mg/day + oxycodone 40-80 mg/day, listed as naloxone): 31.3 (±25.82) and 31.3 (±25.8)
Mean Bowel Function Score, Mean (SD) V5 [2, 10]: 26.1 (25.1)
Mean Bowel Function Score, Mean (SD) V5 ([2]; ITT non-missing, naloxone 40 mg/day + oxycodone 40-80 mg/day, listed as naloxone): 26.1 (±25.08) and 26.1 (±25.1)
Mean Bowel Function Score, Mean (SD) V3 [2, 11]: 53.6 (22.8)
Mean Bowel Function Score, Mean (SD) V3 [2, 12]: 49.9 (23.1)
Mean Bowel Function Score, Mean (SD) V3 [2, 13]: 47.7 (20.5)
Mean Bowel Function Score, Mean (SD) V5 [2, 11]: 40.1 (24.7)
Mean Bowel Function Score, Mean (SD) V5 [2, 12]: 33.2 (28.4)
Mean Bowel Function Score, Mean (SD) V5 [2, 13]: 26.5 (25.7)
Mean (±SD) bowel function ([2]; ITT, Visit 4, naloxone 10 mg/day + oxycodone 40-80 mg/day): 42.1 (±25.53)
Mean (±SD) bowel function ([2]; ITT, Visit 4, naloxone 20 mg/day + oxycodone 40-80 mg/day): 34.2 (±30.04)
Mean (±SD) bowel function ([2]; ITT, Visit 4, naloxone 40 mg/day + oxycodone 40-80 mg/day): 27.9 (±22.68)
Mean (±SD) bowel function ([2]; ITT, end of follow-up (oxycodone only), former 40 mg naloxone group): 42.4 (±23.19)
Mean (±SD) bowel function ([2]; PP, end of maintenance, naloxone 10 mg/day + oxycodone 40-80 mg/day): 39.4 (±23.44)
Mean (±SD) bowel function ([2]; PP, end of maintenance, naloxone 20 mg/day + oxycodone 40-80 mg/day): 29.8 (±29.29)
Mean (±SD) bowel function ([2]; PP, end of maintenance, naloxone 40 mg/day + oxycodone 40-80 mg/day): 29.6 (±28.34)
Intensity estimates of phasic pain stimuli, naloxone effect [3]: seemed to antagonize partly the oxycodone effect
Checked signs of withdrawal ([4]; oxycodone-pump rats, 60-min observation): the rats underwent robust withdrawal
Graded withdrawal signs (escape attempts, wet-dog shakes) ([4]; oxycodone-pump rats, first 15-min): robust withdrawal that was short-lasting that ended within the first 15-min
Graded withdrawal signs (escape attempts, wet-dog shakes) ([4]; oxycodone-pump rats, later intervals up to 45- to 60-min): no longer significantly present throughout the remainder of the experiment
Signs of withdrawal ([4]; vehicle-pump rats): no signs of withdrawal were observed
Magnitude of reduction of amplitude P1N1 at C4 compared to baseline ([5]; 20 mg oxycodone in combination with 5 mg naloxone): 24.5%
Magnitude of reduction of amplitude P1N1 at C4 compared to baseline ([5]; 20 mg oxycodone in combination with 15 mg naloxone): 23.7%
Dose of naloxone PR that does not significantly influence the analgesic effect (EEG) of oxycodone ([5]; based on 20 mg oxycodone PR): below 15 mg
Mean Pain, Mean (SD) V3 [6, 8]: 35.9 (16.3)
Mean Pain, Mean (SD) V3 [6, 9]: 39.8 (18.4)
Mean Pain, Mean (SD) V5 [6, 8]: 37.2 (17.3)
Mean Pain, Mean (SD) V5 [6, 9]: 37.5 (20.5)
Mean Pain, Mean (SD) V5 [6, 10]: 38.7 (17.0)
Mean Pain, Mean (SD) V3 [6, 14]: 40.1 (20.0)
Mean Pain, Mean (SD) V3 [6, 15]: 39.0 (16.1)
Mean Pain, Mean (SD) V5 ([6]; PP, naloxone 10 mg/day + oxycodone 40-80 mg/day): 38.8 (18.4)
Mean Pain, Mean (SD) V5 [6, 14]: 36.1 (19.5)
Mean Pain, Mean (SD) V5 [6, 15]: 38.7 (16.6)
Mean number of days with laxative intake during the last 7 days prior to the end of maintenance [7, 16]: 2.6±3.34
Percentage of days (mean±SD) with laxation during the entire maintenance phase [7, 16]: 36.5±33.50
Mean number of days with laxative intake during the last 7 days prior to the end of maintenance [7, 17]: 2.0±3.14
Percentage of days (mean±SD) with laxation during the entire maintenance phase [7, 17]: 31.3±41.38
Mean number of days with laxative intake during the last 7 days prior to the end of maintenance [7, 18]: 1.6±2.93
Percentage of days (mean±SD) with laxation during the entire maintenance phase [7, 18]: 27.8±41.25
